This assay deals with MurC (UDP-N-acetylmuramic acid:L-alanine ligase) (Escherichia coli, UniProt P17952). The assay is described as follows: Malachite green phosphate detection enzyme assay with […] MurC. It is filed as biochemical.
Chain of MurC (UDP-N-acetylmuramic acid:L-alanine ligase) (P17952 whole entry): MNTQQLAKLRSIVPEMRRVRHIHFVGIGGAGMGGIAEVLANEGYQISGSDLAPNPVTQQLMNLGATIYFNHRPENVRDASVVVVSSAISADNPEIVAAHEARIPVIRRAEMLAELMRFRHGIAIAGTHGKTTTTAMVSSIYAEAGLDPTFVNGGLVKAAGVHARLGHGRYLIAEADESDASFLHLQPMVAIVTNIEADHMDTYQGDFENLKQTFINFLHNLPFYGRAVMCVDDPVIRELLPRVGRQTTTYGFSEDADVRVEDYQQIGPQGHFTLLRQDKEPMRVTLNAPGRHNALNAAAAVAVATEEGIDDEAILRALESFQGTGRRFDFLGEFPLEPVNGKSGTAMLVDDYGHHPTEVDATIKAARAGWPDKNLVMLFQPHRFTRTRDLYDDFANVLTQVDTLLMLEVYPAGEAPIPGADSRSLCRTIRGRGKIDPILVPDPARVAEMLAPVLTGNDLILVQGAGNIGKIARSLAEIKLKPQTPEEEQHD

Regarding `COc1ccc2cc(C(C)C(=O)NC3C(=O)N4C3SC(C)(C)C4C(=O)O)ccc2c1` [4e, (2S,5R,6S)-6-(3'-(11'-methoxynaphthalen-5'-yl)propanamido)-3,3-dimethyl-7-oxo-4-thia-1-azabicyclo[3.2.0]heptane-2-carboxylic acid], the 50% inhibitory concentration (IC50) – broadly, the midpoint of a concentration-inhibition curve – stood at 12.5 µM. This counts as double-digit micromolar. `Nc1ncnc2c1ncn2[C@@H]1O[C@H](COP(=O)(O)OP(=O)(O)CP(=O)(O)O)[C@@H](O)[C@H]1O` [AMP-PCP] gave an IC50 of 17 µM.

These data come from PMC4534092, “Novel Penicillin Analogues as Potential Antimicrobial Agents; Design, Synthesis and Docking Studies” (PLoS ONE, 2015).
